ChEMBL document CHEMBL3779873, “Rubrolide analogues and their derived lactams as potential anticancer agents” (Medchemcomm, 2016)
Calls of active or inactive are those of the source. The rule behind the calls is not given here.

Assays:
[1] = test system: HL-60; assay: Induction of cell cycle arrest in human HL60 cells assessed as accumulation at S phase at 0.5 uM after 24 hrs by annexin V/propidium iodide staining based flow cytometry (reference value: 27.64 +/- 2.15%); assay type: functional
[2] = Cytotoxicity against human SF295 cells after 72 hrs by MTT assay; assay type: functional, SF-295
[3] = test system: HL-60; assay: Induction of apoptosis in human HL60 cells assessed as cell shrinkage at 0.5 uM after 24 hrs by giemsa staining-based light microscopy analysis; assay type: functional
[4] = test system: HL-60; assay: Induction of apoptosis in human HL60 cells assessed as chromatin condensation at 0.5 uM after 24 hrs by giemsa staining-based light microscopy analysis; assay type: functional, cell-based
[5] = Cytotoxicity against human OVCAR8 cells after 72 hrs by MTT assay; assay type: functional, OVCAR-8
[6] = test system: HL-60; assay: Induction of apoptosis in human HL60 cells assessed as nuclear fragmentation at 0.5 uM after 24 hrs by giemsa staining-based light microscopy analysis; assay type: functional, cell-based
[7] = test system: HL-60; assay: Induction of cell cycle arrest in human HL60 cells assessed as accumulation at sub-G0/G1 phase at 0.5 uM after 24 hrs by annexin V/propidium iodide staining based flow cytometry (reference value: 6.10 +/- 0.28 %); assay type: functional
[8] = Cytotoxicity against human HL60 cells after 72 hrs by MTT assay; assay type: functional, HL-60
[9] = Cytotoxicity against human HCT116 cells after 72 hrs by MTT assay; assay type: functional, HCT-116
[10] = test system: HL-60; assay: Induction of cell cycle arrest in human HL60 cells assessed as accumulation at G0/G1 phase at 0.5 uM after 24 hrs by annexin V/propidium iodide staining based flow cytometry (reference value: 45.81 +/- 3.16%); assay type: functional
[11] = test system: HL-60; assay: Induction of cell cycle arrest in human HL60 cells assessed as accumulation at G2/M phase at 0.5 uM after 24 hrs by annexin V/propidium iodide staining based flow cytometry (reference value: 19.04 +/- 1.1%); assay type: functional
[12] = test system: HL-60; assay: Induction of apoptosis in human HL60 cells assessed as phosphatidylserine externalization at 10 uM after 24 hrs by annexin V/propidium iodide staining based flow cytometry; assay type: functional
[13] = test system: HL-60; assay: Induction of apoptosis in human HL60 cells assessed as chromatolysis at 2.5 to 10 uM after 24 hrs by giemsa staining-based light microscopy analysis; assay type: functional, cell-based
[14] = test system: HL-60; assay: Induction of cell cycle arrest in human HL60 cells assessed as accumulation at sub-G0/G1 phase at 5 uM after 24 hrs by annexin V/propidium iodide staining based flow cytometry (reference value: 6.10 +/- 0.28 %); assay type: functional
[15] = test system: HL-60; assay: Induction of apoptosis in human HL60 cells assessed as DNA fragmentation after 24 hrs by annexin V/propidium iodide staining based flow cytometry; assay type: functional, cell-based
[16] = test system: HL-60; assay: Induction of apoptosis in human HL60 cells assessed as mitochondrial depolarization at 2.5 uM after 24 hrs by rhodamine-123 as fluorescent dye based flow cytometry; assay type: functional
[17] = test system: HL-60; assay: Induction of cell cycle arrest in human HL60 cells assessed as accumulation at G2/M phase at 5 uM after 24 hrs by annexin V/propidium iodide staining based flow cytometry (reference value: 19.04 +/- 1.10 %); assay type: functional
[18] = test system: HL-60; assay: Induction of apoptosis in human HL60 cells assessed as cytoplasmic budding at 2.5 to 10 uM after 24 hrs by giemsa staining-based light microscopy analysis; assay type: functional, cell-based
[19] = test system: HL-60; assay: Induction of apoptosis in human HL60 cells assessed as increase in apoptotic cells after 24 hrs by acridine orange/ethidium bromide staining based fluorescence microscopy; assay type: functional, cell-based
[20] = test system: HL-60; assay: Induction of cell cycle arrest in human HL60 cells assessed as accumulation at G2/M phase at 10 uM after 24 hrs by annexin V/propidium iodide staining based flow cytometry (reference value: 19.04 +/- 1.10 %); assay type: functional
[21] = test system: HL-60; assay: Induction of apoptosis in human HL60 cells assessed as decrease in viable cells after 24 hrs by acridine orange/ethidium bromide staining based fluorescence microscopy; assay type: functional, cell-based
[22] = test system: HL-60; assay: Induction of apoptosis in human HL60 cells assessed as increase in apoptotic cells at 2.5 uM after 24 hrs by acridine orange/ethidium bromide staining based fluorescence microscopy; assay type: functional
[23] = test system: HL-60; assay: Induction of apoptosis in human HL60 cells assessed as phosphatidylserine externalization at 5 uM after 24 hrs by annexin V/propidium iodide staining based flow cytometry; assay type: functional
[24] = Cytotoxicity against mouse L929 cells after 72 hrs by MTT assay; assay type: cell-based; settings: read-out: RC50
[25] = Cytotoxicity against human SF295 cells assessed as reduction in cell viability at 25 ug/mL after 72 hrs by MTT assay; assay type: functional, SF-295
[26] = test system: HL-60; assay: Induction of apoptosis in human HL60 cells assessed as intranuclear vacuoles at 2.5 to 10 uM after 24 hrs by giemsa staining-based light microscopy analysis; assay type: functional, cell-based
[27] = test system: HL-60; assay: Induction of apoptosis in human HL60 cells assessed as chromatin condensation at 2.5 to 10 uM after 24 hrs by giemsa staining-based light microscopy analysis; assay type: functional, cell-based
[28] = test system: HL-60; assay: Induction of apoptosis in human HL60 cells assessed as phosphatidylserine externalization at 2.5 uM after 24 hrs by annexin V/propidium iodide staining based flow cytometry; assay type: functional
[29] = test system: HL-60; assay: Induction of apoptosis in human HL60 cells assessed as increase in necrotic cells at 10 uM after 24 hrs by acridine orange/ethidium bromide staining based fluorescence microscopy; assay type: functional
[30] = test system: HL-60; assay: Induction of apoptosis in human HL60 cells assessed as decrease in viable cells at 5 uM after 24 hrs by acridine orange/ethidium bromide staining based fluorescence microscopy; assay type: functional
[31] = test system: HL-60; assay: Induction of apoptosis in human HL60 cells assessed as mitochondrial depolarization at 5 uM after 24 hrs by rhodamine-123 as fluorescent dye based flow cytometry; assay type: functional
[32] = test system: HL-60; assay: Induction of apoptosis in human HL60 cells assessed as increase in necrotic cells after 24 hrs by acridine orange/ethidium bromide staining based fluorescence microscopy; assay type: functional, cell-based
[33] = Cytotoxicity against human HCT116 cells assessed as reduction in cell viability at 25 ug/mL after 72 hrs by MTT assay; assay type: functional, HCT-116
[34] = test system: HL-60; assay: Induction of cell cycle arrest in human HL60 cells assessed as accumulation at S phase at 10 uM after 24 hrs by annexin V/propidium iodide staining based flow cytometry (reference value: 27.64 +/- 2.15 %); assay type: functional
[35] = test system: HL-60; assay: Induction of apoptosis in human HL60 cells assessed as mitochondrial depolarization at 10 uM after 24 hrs by rhodamine-123 as fluorescent dye based flow cytometry; assay type: functional
[36] = test system: HL-60; assay: Induction of apoptosis in human HL60 cells assessed as mitochondrial depolarization after 24 hrs by rhodamine-123 as fluorescent dye based flow cytometry; assay type: functional, cell-based
[37] = test system: HL-60; assay: Induction of cell cycle arrest in human HL60 cells assessed as accumulation at sub-G0/G1 phase at 10 uM after 24 hrs by annexin V/propidium iodide staining based flow cytometry (reference value: 6.10 +/- 0.28 %); assay type: functional
[38] = test system: HL-60; assay: Induction of apoptosis in human HL60 cells assessed as decrease in viable cells at 10 uM after 24 hrs by acridine orange/ethidium bromide staining based fluorescence microscopy; assay type: functional
[39] = Cytotoxicity against human OVCAR8 cells assessed as reduction in cell viability at 25 ug/mL after 72 hrs by MTT assay; assay type: functional, OVCAR-8
[40] = test system: HL-60; assay: Induction of cell cycle arrest in human HL60 cells assessed as accumulation at S phase at 5 uM after 24 hrs by annexin V/propidium iodide staining based flow cytometry (reference value: 27.64 +/- 2.15 %); assay type: functional
[41] = test system: HL-60; assay: Induction of cell cycle arrest in human HL60 cells assessed as accumulation at G0/G1 phase at 5 uM after 24 hrs by annexin V/propidium iodide staining based flow cytometry (reference value: 45.81 +/- 3.16 %); assay type: functional
[42] = test system: HL-60; assay: Induction of cell cycle arrest in human HL60 cells assessed as accumulation at S phase at 2.5 uM after 24 hrs by annexin V/propidium iodide staining based flow cytometry (reference value: 27.64 +/- 2.15 %); assay type: functional
[43] = test system: HL-60; assay: Induction of apoptosis in human HL60 cells assessed as increase in apoptotic cells at 10 uM after 24 hrs by acridine orange/ethidium bromide staining based fluorescence microscopy; assay type: functional
[44] = test system: HL-60; assay: Induction of apoptosis in human HL60 cells assessed as decrease in viable cells at 2.5 uM after 24 hrs by acridine orange/ethidium bromide staining based fluorescence microscopy; assay type: functional
[45] = test system: HL-60; assay: Induction of cell cycle arrest in human HL60 cells assessed as accumulation at G0/G1 phase at 10 uM after 24 hrs by annexin V/propidium iodide staining based flow cytometry (reference value: 45.81 +/- 3.16 %); assay type: functional
[46] = test system: HL-60; assay: Induction of apoptosis in human HL60 cells assessed as reduction in cellular and nuclear volumes at 2.5 to 10 uM after 24 hrs by giemsa staining-based light microscopy analysis; assay type: functional, cell-based
[47] = test system: HL-60; assay: Induction of cell cycle arrest in human HL60 cells assessed as accumulation at G2/M phase at 2.5 uM after 24 hrs by annexin V/propidium iodide staining based flow cytometry (reference value: 19.04 +/- 1.10 %); assay type: functional
[48] = test system: HL-60; assay: Induction of cell cycle arrest in human HL60 cells assessed as accumulation at sub-G0/G1 phase at 2.5 uM after 24 hrs by annexin V/propidium iodide staining based flow cytometry (reference value: 6.10 +/- 0.28 %); assay type: functional
[49] = test system: HL-60; assay: Induction of cell cycle arrest in human HL60 cells assessed as accumulation at G0/G1 phase at 2.5 uM after 24 hrs by annexin V/propidium iodide staining based flow cytometry (reference value: 45.81 +/- 3.16 %); assay type: functional
[50] = test system: HL-60; assay: Induction of apoptosis in human HL60 cells assessed as increase in apoptotic cells at 5 uM after 24 hrs by acridine orange/ethidium bromide staining based fluorescence microscopy; assay type: functional

COc1cccc2c1C(=O)c1c(O)c3c(c(O)c1C2=O)C[C@@](O)(C(=O)CO)C[C@@H]3O[C@H]1C[C@H](N)[C@H](O)[C@H](C)O1 [DOXORUBICIN]
Activity [1]: 15.5%
RC50 [2]: 0.44 µM
Activity [3]: Active
Activity [4]: Active
RC50 [5]: 0.62 µM
Activity [6]: Active
Activity [7]: 46.25%
RC50 [8]: 0.02 µM
RC50 [9]: 0.04 µM
Activity [10]: 33.78%
Activity [11]: 2.59%

COc1ccc(Br)cc1C1=C(Br)C(=O)O/C1=C\c1ccc(C(F)(F)F)cc1
Activity [12]: 48.1%
Activity [13]: Active
Activity [14]: 23.17%
Activity [15]: Dose-dependent effect
RC50 [2]: 4.9 µM
Activity [16]: 35.1%
Activity [17]: 2.86%
Activity [18]: Active
Activity [19]: Dose-dependent effect
Activity [20]: 9.12%
RC50 [5]: 2.74 µM
Activity [21]: Dose-dependent effect
Activity [22]: 31.3%
Activity [23]: 33.3%
CC50 at 72 h [24]: > 50 µM
Activity [25]: 91.06%
Activity [26]: Active
Activity [27]: Active
Activity [28]: 16.2%
Activity [29]: 16.7%
Activity [30]: 38.8%
Activity [31]: 47%
Activity [32]: Dose-dependent effect
Activity [33]: 98.22%
Activity [34]: 11.81%
Activity [35]: 68%
Activity [36]: Dose-dependent effect
Activity [37]: 48.52%
Activity [38]: 11.8%
Activity [39]: 99.5%
Activity [40]: 12.93%
Activity [41]: 72.43%
RC50 [8]: 3.58 µM
Activity [42]: 13.75%
Activity [43]: 71.5%
Activity [44]: 67.1%
RC50 [9]: 2.98 µM
Activity [45]: 31.64%
Activity [46]: Active
Activity [47]: 5.92%
Activity [48]: 15.27%
Activity [49]: 72.81%

O=C1O/C(=C\c2ccc(Br)cc2)C(Cl)=C1Cl
Activity [12]: 29%
Activity [13]: Active
Activity [14]: 29.63%
Activity [15]: Dose-dependent effect
RC50 [2]: 14.68 µM
Activity [16]: 21.7%
Activity [17]: 4.68%
Activity [18]: Active
Activity [19]: Dose-dependent effect
Activity [20]: 2.71%
RC50 [5]: 13.68 µM
Activity [21]: Dose-dependent effect
Activity [23]: 19%
CC50 at 72 h [24]: > 50 µM
Activity [25]: 94.12%
Activity [26]: Active
Activity [27]: Active
Activity [28]: 9.5%
Activity [29]: 12.7%
Activity [30]: 17.7%
Activity [31]: 37.1%
Activity [32]: Dose-dependent effect
Activity [33]: 98.27%
Activity [34]: 7.26%
Activity [35]: 56.2%
Activity [36]: Dose-dependent effect
Activity [37]: 51.26%
Activity [38]: 47.3%
Activity [39]: 98.99%
Activity [40]: 14.77%
Activity [41]: 43.19%
RC50 [8]: 3 µM
Activity [42]: 24.16%
Activity [43]: 46.8%
Activity [50]: 24.1%
RC50 [9]: 8.18 µM
Activity [45]: 33.59%
Activity [46]: Active
Activity [47]: 7.39%
Activity [48]: 17.5%
Activity [49]: 45.29%
